Laboratory results: patent US20110294803A1, “PHOSPHATIDYLINOSITOL-3-KINASE P110 DELTA-TARGETED DRUGS IN THE TREATMENT OF CNS DISORDERS” (priority 2008, published 2011)
“Also recorded” adds a separate entry of the source.

Columns and labels:
C57BL/6J mice [1] = assay: Amphetamine-induced locomotor activity in open field, normal mice; type: in vivo, mouse; details: IC87114 0.1 mg/kg i.p. pretreatment; D-amphetamine 0.75 or 1.5 mg/kg i.p.; male C57BL/6J mice
Experimental: (§1) Subjects. C57BL/6J mice were purchased from The Jackson Laboratory at 8 weeks old. All mice were group-housed (4/cage) in a climate-controlled animal facility (22±2° C.) and maintained on a 12-hr light/dark cycle, with free access to food and water. Testing was conducted in male mice, at ages 2-3 months, during the light phase of the circadian cycle. Mice were handled by the experimenter on alternate days during the week preceding the tests. At least one hour before any test manipulation, mice were habituated in a room adjacent to the testing room.
On day 3, mice were tested in the same experimental apparatus and conditions as on day 1. […] During the first 10-minute session mice were placed in the same empty open field as day 1. Immediately after, mice were removed from the field and given an injection of D-amphetamine sulphate (either 0.75 mg/kg or 1.5 mg/kg, i.p., Sigma-Aldrich, St. Louis, Mo., USA). They were then placed back in the same open field and allowed to explore for an additional 75 minutes. Amphetamine was dissolved in physiological saline and injected in a volume of 10 ml/kg.
Statistical analysis. Results were expressed as mean±standard error of the mean (S.E.M.) throughout. Student T-test, Two- or Three-Way analysis of variance (ANOVA) was used. Post-hoc analyses for individual group comparisons employed Newman-Keuls analyses.

[2] = tested on: COMT*dysbindin double knockout mice; assay: Amphetamine-induced stereotypy in a genetic mouse model of schizophrenia; type: in vivo; details: IC87114 0.1 mg/kg i.p. pretreatment, D-amphetamine 1.5 mg/kg i.p.
Source text: Subjects. All procedures were approved by the NIMH Animal Care and Use Committee and followed the NIH Guidelines “Using Animals in Intramural Research.” To derive the double knockout mice, the lines of COMT knockout mice and dysbindin knockout mice previously described were used. COMT*dysbindin double knockout mice (COMT−/− dys−/−) were littermates and bred by double heterozygote mating (dCOMT+/−dys+/− with cCOMT+/−dys+/−). Mice were identified by PCR analysis of tail DNA. Mice were group-housed (2-4/cage) in a climate-controlled animal facility (22±2° C.) and maintained on a 12-hr light/dark cycle, with free access to food and water. Testing was conducted in male mice, 7 months old, during the light phase. Experimenters were blind to the genotype during behavioral testing. Mice were handled by the experimenter on alternate days during the week preceding the tests. At least one hour before any test manipulation, mice were habituated in a room adjacent to the testing room.
Stereotypy behavior with IC87114 and Amphetamine Treatment. […] Stereotypy was scored from videotapes by an observer blind to the treatments and genotype conditions of each mouse. […]
Statistical analysis. Results were expressed as mean±standard error of the mean (S.E.M.) throughout. […]

C57BL/6J mice [3] = assay: Baseline locomotor activity in open field; type: in vivo, mouse; details: IC87114 0.1 mg/kg i.p., male C57BL/6J mice, no amphetamine
Experimental: as §1
Mice were tested on day 1 in an experimental apparatus consisting of four Plexiglas Digiscan automated open fields (Accuscan; 42×42×30 cm dimensions). One red light (5±2 lux) was placed overhead, evenly illuminating each open field. Each apparatus contained photobeam sensors to measure the exploratory and locomotor activity of the mice. During the first 10-minute session, mice were placed in the empty open field and allowed to explore the arena. […] They were then place back in the same open field for an additional 75 minutes. All sessions were videotaped. […] “Vehicle-treated” mice were injected with the same volume of 0.25% DMSO in saline physiological saline.
Statistical analysis. Results were expressed as mean±standard error of the mean (S.E.M.) throughout. Student T-test, Two- or Three-Way analysis of variance (ANOVA) was used. […]

[4] = tested on: Human B-lymphoblast cells (LCLs); assay: NRG1-induced lymphocyte (LCL) migration, Transwell assay; type: cell-based; details: 0.1 uM, 60 min preincubation; LCLs of normal individuals and patients with schizophrenia; NRG-1 200 ng/ml, 4 hours
Experimental: The cellular phenotype is migration of lymphocytes to the chemoattractant, Neuregulin (NRG1), a key regulator of brain development. NRG1 induced LCL migration is diminished in patients with schizophrenia.
Human B-lymphoblast cells were cultured in RPMI 1640 without L-Glutamine medium (Quality Biological, Inc.) supplemented with 15% fetal bovine serum (FBS), 1% Penicillin-streptomycin, and 2% L-Glutamine in a 5% CO2 incubator at 37° C. Prior to performing migration assay, cells were incubated for 16-18 hours in the same culture, lowering the concentration of FBS to 2%. […] Following incubations, cells were seeded into the top chamber of the HTS […] Transwell®-96 Cell Migration plate (Corning) at 4×10^5 cell/well concentration in a 50 μl volume. NRG-1 serum free RPMI solution with antibiotics and L-Glutamine supplements (NRG-1 200 ng/ml; 160 μl) was added to the bottom chamber and incubated for 4 hours at 37° C. 75 μl of the bottom chamber fraction was collected and combined with 25 μl of cyquant/lysis buffer reagent (according to Invitrogen protocol) for 15 min at RT and in the dark, and then read with a Wallac 1420 VICTOR3 multilabel plate reader under standard fluorescein (485 nm/535 nm, 1.0 s) protocol.

[5] = Passive blood-brain barrier permeability analysis by partitioning (Analiza); type: physicochemical
Experimental: For compounds to be clinically useful to treat CNS disorders, they should penetrate the blood-brain barrier (BBB). […] The degree of BBB penetration is measured as the ratio of the steady-state concentrations of the drug in the brain and in the blood, expressed as log(Cbrain/Cblood) or log BB. Compounds with logBB>0.3 (i.e. Cbrain/Cblood>2.0) cross the BBB readily. From these studies, IC87114 represents one of these compounds.
BBB analysis was performed using Analiza assays: Based upon a method described previously, a combination of two descriptors representing the lipophilicity (as measured by octanol-buffer partitioning, logD7.4) and relative hydrophobicity (as measured by aqueous two-phase partitioning (ATPPS), N(CH2)) of organic compounds was used to determine if that compound will permeate the blood-brain barrier.
Sample Preparation: One sample was received as 10 mM stock solutions in Dimethyl sulfoxide (DMSO) frozen on dry ice in a microtube. […]
Partitioning Experiments: Partitioning in an aqueous dextran-polyethylene glycol (Dex-PEG) two-phase system containing 0.15M NaCl in 0.01M sodium phosphate buffer at pH 7.4 was performed with an Automated Signature Workstation (Analiza, Inc. Cleveland, Ohio). […] Relative Hydrophobicity (N(CH2)) is then calculated from this partition coefficient. […] Relative Hydrophobicity (N(CH2) is then calculated from this partition coefficient. […]

ErbB4 mRNA = ErbB4 mRNA expression in hippocampus of rats treated chronically with haloperidol; type: in vivo, rat; details: haloperidol 0.08 or 0.6 mg/kg/day i.p. once daily for 28 days
Experimental: (§2) To explore this hypothesis, rats treated chronically with haloperidol, a standard antipsychotic drug, were tested for PIK3CD expression in the brain. Male Sprague-Dawley rats (weight 250 g) were on a 12-h light/dark cycle (lights on/off 0600 hours/1800 hours) in a temperature-controlled environment and with access to food and water. Rats were randomly assigned to drug treatment groups (8 per dose) and administered intraperitoneal injections of haloperidol (0.08 or 0.6 mg/kg/day) or vehicle (0.02% lactic acid) once daily for 28 days. Haloperidol (20 mg/ml) was prepared in 1% lactic acid, diluted with water, and neutralized with 1M NaOH to obtain pH 5.3. Rats were euthanized 7 h after the last injection. Brains were dissected and frozen at −80° C. PIK3CD, PIK3R3, ErbB4, and ErbB3 mRNA expression was determined in rat hippocampus using methods described above. Association of mRNA expression with haloperidol treatment was analyzed by ANOVA.

ErbB3 mRNA = ErbB3 mRNA expression in hippocampus of rats treated chronically with haloperidol; type: in vivo, rat; details: haloperidol 0.08 or 0.6 mg/kg/day i.p. once daily for 28 days
Experimental: as §2

PIK3CD mRNA = PIK3CD mRNA expression in hippocampus of rats treated chronically with haloperidol; type: in vivo, rat; details: haloperidol 0.08 or 0.6 mg/kg/day i.p. once daily for 28 days, compared to untreated rats; F(2,22)=9.45, p=0.001
Experimental: as §2

PIK3R3 mRNA = PIK3R3 mRNA expression in hippocampus of rats treated chronically with haloperidol; type: in vivo, rat; details: haloperidol 0.08 or 0.6 mg/kg/day i.p. once daily for 28 days
Experimental: as §2

| Structure (SMILES) | amphetamine-induced hyperlocomotion (distance traveled during 75 minutes) (C57BL/6J mice [1]) | amphetamine-induced stereotypy [2] | baseline locomotor activity (distance traveled during 75 minutes) (C57BL/6J mice [3]) | LCL migration in response to NRG-1 stimulation [4] | logBB (log(Cbrain/Cblood)) ([5]; calculated from partitioning data) | Kp ([5]; not told, calculated from log D (octanol-buffer, pH 7.4) and N(CH2) (aqueous two-phase partitioning), read-out: Cbrain/Cblood) | ErbB4 mRNA expression in rat hippocampus (ErbB4 mRNA) | ErbB3 mRNA expression in rat hippocampus (ErbB3 mRNA) | expression of PIK3CD mRNA in rat hippocampus (PIK3CD mRNA) | PIK3R3 mRNA expression in rat hippocampus (PIK3R3 mRNA) |
| --- | --- | --- | --- | --- | --- | --- | --- | --- | --- | --- |
| Cc1ccccc1-n1c(Cn2cnc3c(N)ncnc32)nc2cccc(C)c2c1=O [IC87114] | reduces amphetamine-induced hyperlocomotion; also recorded: reduces amphetamine induced locomotor abnormalities; also recorded: blocked the amphetamine-induced increase in locomotor activity | dramatically reduces amphetamine-induced stereotypy; also recorded: diminished | no effect on baseline locomotor activity; also recorded: without affecting baseline behavior; also recorded: did not show any drug-treatment effect | Rescues a Cellular Phenotype Related to Schizophrenia; also recorded: significantly improve LCL migration | > 0.3 | > 2 |  |  |  |  |
| O=C(CCCN1CCC(O)(c2ccc(Cl)cc2)CC1)c1ccc(F)cc1 [haloperidol] |  |  |  |  |  |  | did not affect | did not affect | decreases expression of PIK3CD mRNA | did not affect |
